Results on one compound are retold here after patent US20250356957A1, “EMULATOR OF SUBCUTANEOUS ABSORPTION AND RELEASE” (UNIVERSITY OF KANSAS, priority 2022, published 2025).

A short description of this data set: ESCAR drug release tests for acetaminophen solution (factor screening). Format: in vitro ADME. The settings on record: center position injection, 10 mg/mL solution. How it is done: Acetaminophen solution (10 mg/mL) and the subcutaneous chamber (Version 1; FIG. 2C) were used across different runs. Both the “lymphatic circulation” and “blood circulation” chambers were filled with 75 mL of PBS (pH 7.4), and the subcutaneous chamber was filled with 2.8 mL of HA/PBS solution. At the surrounding areas of the interfaces, a layer of mounting tape was assembled to prevent liquid leakage. Sequentially, the “subcutaneous”/“blood circulation” interface was assembled with a SpectraPor® dialysis membrane (MWCO: 50 kDa), and the “subcutaneous”/“lymphatic circulation” interface was assembled with a SpectraPor® dialysis membrane (MWCO: 300 kDa). All membranes were pre-soaked in DI water for at least 1 h before use. The drug release tests were conducted at 34° C. in a convective oven, with mild magnetic stirring in the “blood circulation” and “lymphatic circulation” chambers. […] A 18-run full factorial experimental design was employed to evaluate three factors, HA concentration (three levels: 2.5, 5, 10 mg/mL), injection volume (three levels: 0.25, 0.5, 1 mL), and injection position/needle tip position to the membrane at the “subcutaneous”/“blood circulation” interface (two levels: 0.2, 0.5 cm). At the pre-set time points, 1.5 mL of aliquots were withdrawn from the “blood circulation” chamber with the replacement of the same volume of PBS. Each run was conducted in triplicate.

`CC(=O)Nc1ccc(O)cc1` [acetaminophen, Acetaminophen]: the “release fraction (%) at 8-hr” value is around 60% (2.5 mg/mL HA solution), around 30% (5 mg/mL HA solution), around 15% (10 mg/mL HA solution) and around 80% (subcutaneous medium PBS).
